Assay results taken from ChEMBL document CHEMBL1201862, “PubChem BioAssay data set” (2004).
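Each compound was tested at five concentrations against cells in 96-well plates for 48 hours. Abbreviation: GI50, concentration required for 50% inhibition of growth.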 The source made the active and inactive calls. Cut-off read from the data, not from the text of the source: active = GI50 up to about 1.1 µM and inactive = higher.

Experiments:
Assay in all cases: inhibition of tumour cell growth, NCI panel, 48 h
[1] = test system: MDA-MB-435
[2] = test system: HT-29
[3] = test system: NCI-H460
[4] = test system: SK-MEL-5
[5] = test system: U-251
[6] = test system: UACC-257
[7] = test system: ACHN
[8] = test system: UO-31
[9] = test system: A549
[10] = test system: HCC 2998
[11] = test system: HL-60
[12] = test system: MCF7
[13] = test system: HCT-15
[14] = test system: HCT-116
[15] = test system: T47D
[16] = test system: SF-539
[17] = test system: SNB-75
[18] = test system: LOX IMVI
[19] = test system: MDA-N
[20] = test system: SR

Row | Structure (SMILES) | GI50 [1] | GI50 [2] | GI50 [3] | GI50 [4] | GI50 [5] | GI50 [6] | GI50 [7] | GI50 [8] | GI50 [9] | GI50 [10] | GI50 [11] | GI50 [12] | GI50 [13] [µM] | GI50 [14] | GI50 [15] | GI50 [16] | GI50 [17] | GI50 [18] | GI50 [19] | GI50 [20]
1 | CCOC(=O)CCC(C(=O)OCC)n1nc2ccc(Nc3c(C)[n+]([O-])c4cc(F)c(OCC)cc4[n+]3[O-])cc2n1 (stereo not given) | > 100 µM (inactive) | > 100 µM (inactive) | 29.3 µM (inactive) | 82.8 µM (inactive) | 23.6 µM (inactive) | > 100 µM (inactive) | 40.2 µM (inactive) | 52.4 µM (inactive) | 75.2 µM (inactive) | 35 µM (inactive) | > 100 µM (inactive) | 61.2 µM (inactive) | > 100 | 50.8 µM (inactive) | 66.1 µM (inactive) | 22.5 µM (inactive) | 15.8 µM (inactive) | > 100 µM (inactive) | > 100 µM (inactive) | > 100 µM (inactive)
2 | CCN(CC)CCn1ncc2ccc3c(c(=O)c4cccnc4n3CCN(CC)CC)c21 | 0.655 µM (active) | 0.435 µM (active) | 0.403 µM (active) | 1.09 µM (active) | 0.597 µM (active) | 1.88 µM (inactive) | 0.733 µM (active) | 1.5 µM (inactive) | 0.618 µM (active) | 0.75 µM (active) | 1.09 µM (active) | 0.618 µM (active) | 0.743 | 0.385 µM (active) | 2.28 µM (inactive) | 0.589 µM (active) | 1.05 µM (active) | 0.521 µM (active) | 0.861 µM (active) | 0.284 µM (active)
3 | CC(=O)/N=C1\C=C(NC(C)=O)C(=O)c2ccccc21 | 1.82 µM (inactive) | 2.58 µM (inactive) | 5.08 µM (inactive) | 1.64 µM (inactive) | 2.99 µM (inactive) | 1.81 µM (inactive) | 1.45 µM (inactive) | 2.04 µM (inactive) | 4.62 µM (inactive) | 17.7 µM (inactive) | 1.85 µM (inactive) | 1.76 µM (inactive) | 1.89 | 1.49 µM (inactive) | 1.48 µM (inactive) | 2.37 µM (inactive) | 2.54 µM (inactive) | 1.68 µM (inactive) | 1.9 µM (inactive) | 1.52 µM (inactive)
4 | CCOC(=O)COc1c(OC)cc(C2C3=C(COC3=O)Oc3cc4c(cc32)OCO4)cc1OC (stereo not given) | 0.0635 µM (active) | 0.927 µM (active) | 7.94 µM (inactive) | 0.244 µM (active) | 0.499 µM (active) | 9.77 µM (inactive) | 6.52 µM (inactive) | 13.4 µM (inactive) | 4.45 µM (inactive) | 14.5 µM (inactive) | 0.138 µM (active) | 3.27 µM (inactive) | 0.502 | 0.773 µM (active) | 2.54 µM (inactive) | 3.57 µM (inactive) | 4.62 µM (inactive) | 0.625 µM (active) | 0.384 µM (active) | 0.995 µM (active)
5 | O=C1c2ccccc2CC12Cc1ccc3c(c1C2=O)CCCC3 (stereo not given) | 21.7 µM (inactive) | 6.49 µM (inactive) | 3.91 µM (inactive) | 6.19 µM (inactive) | 35.2 µM (inactive) | > 100 µM (inactive) | 7.83 µM (inactive) | 9.27 µM (inactive) | 8.05 µM (inactive) | > 100 µM (inactive) | 16.8 µM (inactive) | > 100 µM (inactive) | 5.13 | 3.57 µM (inactive) | 1.39 µM (inactive) | 4.89 µM (inactive) | 6.52 µM (inactive) | 19.9 µM (inactive) | 6.35 µM (inactive) | 2.87 µM (inactive)
6 | COc1ccc(C2c3cc4c(cc3C(O)C3CCC(=O)N23)OCO4)cc1 (stereo not given) | > 100 µM (inactive) | > 100 µM (inactive) | > 100 µM (inactive) | > 100 µM (inactive) | > 100 µM (inactive) | > 100 µM (inactive) | > 100 µM (inactive) | > 100 µM (inactive) | > 100 µM (inactive) | > 100 µM (inactive) | > 100 µM (inactive) | > 100 µM (inactive) | > 100 | > 100 µM (inactive) | > 100 µM (inactive) | > 100 µM (inactive) | 82.2 µM (inactive) | > 100 µM (inactive) | > 100 µM (inactive) | > 100 µM (inactive)
7 | CNc1ncnc2c1ncn2C1C=CC(COS(N)(=O)=O)C1 (stereo not given) | > 100 µM (inactive) | > 100 µM (inactive) | > 100 µM (inactive) | > 100 µM (inactive) | > 100 µM (inactive) | > 100 µM (inactive) | > 100 µM (inactive) | > 100 µM (inactive) | > 100 µM (inactive) | > 100 µM (inactive) | > 100 µM (inactive) | > 100 µM (inactive) | > 100 | > 100 µM (inactive) | > 100 µM (inactive) | > 100 µM (inactive) | > 100 µM (inactive) | > 100 µM (inactive) | > 100 µM (inactive) | > 100 µM (inactive)
8 | O=[N+]([O-])c1ccc(-c2cc(O)c3nc4ccccc4n3c2)cc1 | > 31.6 µM (inactive) | > 100 µM (inactive) | > 100 µM (inactive) | > 100 µM (inactive) | 28.1 µM (inactive) | > 100 µM (inactive) | 65.2 µM (inactive) | > 91.4 µM (inactive) | > 100 µM (inactive) | > 100 µM (inactive) | > 100 µM (inactive) | > 84.7 µM (inactive) | > 100 | > 100 µM (inactive) | 74 µM (inactive) | > 100 µM (inactive) | > 40.9 µM (inactive) | > 100 µM (inactive) | > 100 µM (inactive) | > 100 µM (inactive)
9 | c1ccc2c(c1)CCc1[nH]c3c(c1-2)-c1ccccc1CC3 | 74.6 µM (inactive) | 32.3 µM (inactive) | 39.9 µM (inactive) | > 100 µM (inactive) | > 100 µM (inactive) | > 100 µM (inactive) | > 100 µM (inactive) | > 100 µM (inactive) | 77.1 µM (inactive) | 36 µM (inactive) | 27.9 µM (inactive) | 39.9 µM (inactive) | 48.1 | 96.8 µM (inactive) | 90.2 µM (inactive) | > 100 µM (inactive) | 80.5 µM (inactive) | 42.6 µM (inactive) | 94 µM (inactive) | 38.7 µM (inactive)
10 | CC(=O)c1ccc(Br)cc1NC1=CC(=O)c2ncccc2C1=O | 1.69 µM (inactive) | 3.24 µM (inactive) | 1.12 µM (active) | 0.322 µM (active) | 6.22 µM (inactive) | 1.48 µM (inactive) | 3.6 µM (inactive) | 3.86 µM (inactive) | 2.4 µM (inactive) | 3.22 µM (inactive) | 1.64 µM (inactive) | 1.38 µM (inactive) | 2.69 | 1.9 µM (inactive) | 3.85 µM (inactive) | 2.56 µM (inactive) | 0.242 µM (active) | 5.79 µM (inactive) | 1.81 µM (inactive) | 2.22 µM (inactive)
11 | CCCN(CCC)C(=S)Sc1nc(C)nc(N2CCN(c3nc(C)nc(SC(=S)N(CCC)CCC)c3[N+](=O)[O-])CC2)c1[N+](=O)[O-] | 4.82 µM (inactive) | 2.07 µM (inactive) | 23.9 µM (inactive) | 3.16 µM (inactive) | 6.5 µM (inactive) | 15.6 µM (inactive) | 13.9 µM (inactive) | 17.9 µM (inactive) | 20.7 µM (inactive) | 16.5 µM (inactive) | 3.1 µM (inactive) | 0.248 µM (active) | 9.4 | 2.03 µM (inactive) | 8.2 µM (inactive) | 26.8 µM (inactive) | 27.5 µM (inactive) | 0.421 µM (active) | 8.45 µM (inactive) | 1.07 µM (active)
12 | O=C(Nc1ccn(C2CC(I)C(COC(c3ccccc3)(c3ccccc3)c3ccccc3)O2)c(=O)n1)c1ccccc1 (stereo not given) | 7.36 µM (inactive) | 6.5 µM (inactive) | 7.11 µM (inactive) | 9.53 µM (inactive) | 10.1 µM (inactive) | 10.8 µM (inactive) | 12.7 µM (inactive) | 4.53 µM (inactive) | 7.83 µM (inactive) | 12.6 µM (inactive) | 5.83 µM (inactive) | 4.86 µM (inactive) | 8.73 | 6.35 µM (inactive) | 6.87 µM (inactive) | 12.4 µM (inactive) | 2.43 µM (inactive) | 8.18 µM (inactive) | 7.91 µM (inactive) | 0.6 µM (active)
13 | CN(C)c1ccc(C=C2N=C(c3ccccc3)N(c3cc(C(=O)c4ccccc4)ccc3N3C(=O)/C(=C/c4ccc(N(C)C)cc4)N=C3c3ccccc3)C2=O)cc1 | 1.9 µM (inactive) | 4.28 µM (inactive) | 3.94 µM (inactive) | 3.42 µM (inactive) | 3.67 µM (inactive) | 6.43 µM (inactive) | 6.31 µM (inactive) | 15.8 µM (inactive) | 6.31 µM (inactive) | 3.76 µM (inactive) | 5.01 µM (inactive) | 3.33 µM (inactive) | 4.49 | 3.76 µM (inactive) | 5.65 µM (inactive) | 2.34 µM (inactive) | 4.78 µM (inactive) | 5.98 µM (inactive) | 2.16 µM (inactive) | 3.3 µM (inactive)
14 | Oc1nnnc2c1sc1ncccc12 | > 100 µM (inactive) | > 100 µM (inactive) | > 100 µM (inactive) | > 100 µM (inactive) | > 100 µM (inactive) | > 100 µM (inactive) | > 100 µM (inactive) | 84.5 µM (inactive) | > 100 µM (inactive) | > 100 µM (inactive) | > 100 µM (inactive) | > 100 µM (inactive) | > 100 | > 100 µM (inactive) | > 100 µM (inactive) | > 100 µM (inactive) | 25.1 µM (inactive) | > 100 µM (inactive) | > 100 µM (inactive) | 5.7 µM (inactive)
